Molecular target: T1, HMG-CoA synthase (Rattus norvegicus, UniProt P17425)
T1 construct: The livers from male Charles River CD rats (225-350 g) were homogenized; from tissue; host or cells: rat liver (male Charles River CD rats), 100,000 x g supernatant, ammonium sulfate and DEAE-52 fraction
T1 sequence (P17425 1-520): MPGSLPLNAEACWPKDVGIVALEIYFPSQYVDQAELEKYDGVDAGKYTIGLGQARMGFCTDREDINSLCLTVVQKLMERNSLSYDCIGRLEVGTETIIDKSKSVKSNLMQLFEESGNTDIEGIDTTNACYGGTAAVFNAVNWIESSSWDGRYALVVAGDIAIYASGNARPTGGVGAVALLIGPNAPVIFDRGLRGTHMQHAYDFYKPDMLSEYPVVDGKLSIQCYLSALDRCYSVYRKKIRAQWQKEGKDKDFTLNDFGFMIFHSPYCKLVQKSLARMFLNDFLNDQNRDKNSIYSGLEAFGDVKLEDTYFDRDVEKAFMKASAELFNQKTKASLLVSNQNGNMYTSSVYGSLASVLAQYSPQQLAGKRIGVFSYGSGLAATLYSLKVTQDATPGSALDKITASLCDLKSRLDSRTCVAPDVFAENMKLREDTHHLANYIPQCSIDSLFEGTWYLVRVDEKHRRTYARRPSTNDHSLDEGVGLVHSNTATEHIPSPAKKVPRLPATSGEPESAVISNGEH
Test: HMG-CoA Synthase Inhibition Assay
Format: biochemical
Conditions: Table I; rat liver enzyme, 1-[14C]-acetyl-CoA incorporation
Description: The intrinisic HMG-CoA synthase inhibition activity of the compounds of this invention is measured by the standard in vitro protocol described below:
The livers from male Charles River CD rats (225-350 g) were homogenized in 0.25 M sucrose which was adjusted with phenylmethylsulfonylfluoride (PMSF) and N-p-tosyl-1-lysine chloromethyl ketone (TLCK) so that the final concentration of each was […], respectively. The homogenate was centrifuged at 15,000× g for 20 minutes, the supernatant filtered through a fine nylon screen to remove most of the fat layer and recentrifuged at 100,000× g for 1 hour. This supernatant was removed and 1 M potassium phosphate, dithiothreitol (DTT) and ethylene glycolbis(β-aminoethyl ether)-N,N,N',N'-tetraacetic acid (EGTA) added to give a final concentration of 0.1 M (pH 7.2), 0.5 mM and 0.1 mM, respectively. Solid ammonium sulfate was added to 50% saturation to the protein solution, it was centrifuged at 15,000× g and the supernatant discarded. This precipitated protein could be stored at -70° C. for at least one month with very little loss of activity. The ammonium sulfate precipitate was dissolved in an minimal amount of 0.06 M potassium phosphate buffer (pH 7.2) containing 0.5 mM dithiothreitol and 0.1 mM EGTA (referred to as 0.06 M phosphate buffer) and dialyzed overnight against 2 liters of the same buffer to remove the ammonium sulfate and to inactivate HMG-CoA lyase [Clinkenbeard, et al., J. Biol. Chem. 250, 3108-3116(1975)].
The dialyzed extract was added to a column of DEAE-52 (Whatman) which had been equilibrated with 0.06 M phosphate buffer (10 mg of protein in 1 ml bed volume of the resin). The DEAE-cellulose was eluted with 0.06 M phosphate buffer until the optical density at 280 nm was essentially zero. This fraction contained the β-ketoacetyl-CoA thiolase activity. The HMG-CoA synthase was eluted from the column with 0.1 M phosphate buffer (pH 7.2) containing 0.5 mM DTT and […] EGTA, and was virtually free of all thiolase activity. The protein was precipitated by the addition of ammonium sulfate to give 50% saturation. This solution was stirred for 10 minutes at 4° C. and the precipitate collected by centrifugation at 15,000 rpm for 10 minutes. The supernatant was discarded and the precipitate dissolved in a minimum of 0.06 M phosphate buffer, pH 7.2 (about 10 ml) and the enzyme stored at -80° C.
HMG-CoA Synthase Inhibition Assay
Enzyme protein (ca. 24 mg) was added to a solution containing […] Tris-HCl (pH 8.0), 11.7 μM MgCl2, 1.17 μM ethylenediaminetetraacetic acid (EDTA), 0.58 μM dithiothreitol, and the indicated concentrations of the test compound (added as a 2 mg/ml solution in dimethylsulfoxide). The incubation took place in a volume of 0.085 ml at 30° in a shaking water bath. After 5 minutes, […] of a solution containing acetoacetyl-CoA and 0.1 μCi of 1-[^14 C]-acetyl-CoA was added to give a final concentrations of 0.1 and 0.4 μM, respectively. The incubation was continued for 10 more minutes and the reaction stopped by the addition of […] of the assay mixture to 0.2 ml of 6N HCl in a glass scintillation vial. The vial was heated for 1 hour at 120° after which time 0.2 ml more of 6N HCl was again added to each vial and the heating continued for another hour. Following this, 1.0 ml of 0.9% saline was added to each vial and finally 10 ml of scintillation liquid. Radioactivity was determined in a Packard Tri-Carb liquid scintillation counter. Percent inhibition is calculated by the formula: [formula]
IC50 values were determined by plotting the log of the concentration of the test compound verses the percentage inhibition and fitting a straight line to the resulting data by using the least squares method.

Compound	IC50 [nM]
CC[C@@H]1C(=O)N(S(=O)(=O)c2ccc(C)cc2)[C@@H]1COC(=O)c1cccs1 (relative stereo) [Table I s]	38
C=CCOc1c(OC)cc(C(=O)OC[C@@H]2[C@H](CC)C(=O)N2S(=O)(=O)c2ccc(C)cc2)cc1[N+](=O)[O-] (relative stereo) [Table I ll]	160
CCC[C@@H]1C(=O)N(S(=O)(=O)c2ccc(C)cc2)[C@@H]1COC(=O)c1ccc(OC)cc1 (relative stereo) [Table I z]	69.5
CC[C@@H]1C(=O)N(S(=O)(=O)c2ccc(C)cc2)[C@@H]1COC(=O)c1ccc(C(=O)OC(c2ccccc2)c2ccccc2)cc1 (relative stereo) [Table I w]	62
CC[C@@H]1C(=O)N(S(=O)(=O)c2ccc(C)cc2)[C@@H]1COC(=O)c1ccc(C(=O)O)cc1 (relative stereo) [Table I x]	350
CC[C@@H]1C(=O)N(S(=O)(=O)c2ccc(C)cc2)[C@@H]1COC(=O)c1cnc(OC)c(OC)c1 (relative stereo) [Table I oo]	38
CC[C@@H]1C(=O)N(S(=O)(=O)c2ccc(C)cc2)[C@@H]1COC(=O)c1cccc(NS(C)(=O)=O)c1 (relative stereo) [Table I b]	25
CC[C@@H]1C(=O)N(S(=O)(=O)c2ccc(C)cc2)[C@@H]1COC(=O)c1cccc([N+](=O)[O-])c1 (relative stereo) [Table I k]	39

Same assay, conditions: Table II; rat liver enzyme, 1-[14C]-acetyl-CoA incorporation

Compound	IC50 [nM]
CC[C@@H]1C(=O)N(S(=O)(=O)c2ccc(C)cc2)[C@@H]1COC(=O)[C@H](OC)c1ccccc1 [Table II d, cis-(3S), (4S)-3-Ethyl-4-[(R)-α-methoxyphenylacetoxyl]methyl-N-toluenesulfonyl-2-azetidinone]	18
CC[C@H]1C(=O)N(S(=O)(=O)c2ccc(C)cc2)[C@H]1COC(=O)Cc1cc(OC)c(OC)c(OC)c1 (relative stereo) [Table II s]	20
CO[C@H](C(=O)OC[C@@H]1CC(=O)N1S(=O)(=O)c1ccc(C)cc1)c1ccccc1 [Table II e]	42
CC[C@H]1C(=O)N(S(=O)(=O)c2ccc(C)cc2)[C@H]1COC(=O)Nc1ccc(C(F)(F)F)cc1 (relative stereo) [Table II x]	260
CCOc1ccc(CC(=O)OC[C@@H]2[C@H](CC)C(=O)N2S(=O)(=O)c2ccc(C)cc2)cc1C (relative stereo) [Table II o]	2.1
CC[C@H]1C(=O)N(S(=O)(=O)c2ccc(C)cc2)[C@H]1COC(=O)CSc1ccccc1 (relative stereo) [Table II q]	42

Same assay, conditions: Table III; rat liver enzyme, 1-[14C]-acetyl-CoA incorporation

Compound	IC50 [nM]
CC[C@H]1C(=O)N(S(=O)(=O)c2ccc(C)cc2)[C@H]1COS(=O)(=O)c1ccc(C)cc1 (relative stereo) [Table III]	110

Same assay, conditions: Table IV; rat liver enzyme, 1-[14C]-acetyl-CoA incorporation

Compound	IC50 [nM]
Cc1ccc(S(=O)(=O)N2C(=O)[C@H](CO)[C@@H]2C=Cc2ccccc2)cc1 (relative stereo) [Table IV d]	1100
CC[C@@H]1C(=O)N(S(=O)(=O)c2ccc(C)cc2)[C@H]1C(C)=Cc1ccccc1 (relative stereo) [Table IV e]	50000

Same assay, conditions: Table V; rat liver enzyme, 1-[14C]-acetyl-CoA incorporation

Compound	IC50 [nM]
CCC1C(=O)N(S(=O)(=O)c2ccc(C)cc2)C1C(OC(=O)c1ccc(OC)cc1)c1ccccc1 (stereo not shown) [Table V e]	2000

Same assay, conditions: Table VI; rat liver enzyme, 1-[14C]-acetyl-CoA incorporation

Compound	IC50 [nM]
Cc1ccc(S(=O)(=O)N2C(=O)C(C)(C)C2CCc2ccccc2)cc1 (stereo not shown) [Table VI a]	1800

From patent US4983597A, “Beta-lactams as anticholesterolemic agents” (Merck & Co., Inc., priority 1989, dated 1991)
